Data reported in patent US6060481A, “Method for improving insulin sensitivity using an adenosine receptor antagonist” (priority 1999, dated 2000).

Columns and labels:
[1] = system: protein tyrosine phosphatases in WGA eluates; conditions: 1 mM in the buffers
Protocol: The procedure was modified by decreasing the length of autoradiographic exposure to increase sensitivity. ^32 P-poly Glu:Tyr4:1 substrate was incorporated into the 100% SDS polyacrylamide gel prior to polymerization. WGA eluates which were run on the gels were concentrated on Centricon filters to approximately 2 mg/ml. Aliquots (100 μg) were run on the gels. Gels were washed overnight to remove SDS. The proteins were first fully denatured in 6M guanidine HCl and then, after electrophoresis, renatured by incubation in phosphatase assay buffers containing 0.04% Tween® 40 and high concentrations of dithiothreitol (DTT). Next, the gels were dried and exposed to Kodak X-Omat x-ray film at -70° C. for various times. […] In some experiments, concentrated WGA eluates were treated with the antibody anti-PTPase 1B (5 g) prior to assaying phosphatase activity. The antibody was added to 50 μl concentrated eluate and the sample was incubated for 1 h on a tube vortexer at room temperature. Fifty μl of 50% protein A Agarose were centrifuged in a separate tube at 14,000 g for 30 sec. The supernatant was removed, and at the end of 1 h, the WGA eluate was introduced to the agarose precipitate and vortexing was continued for an additional 30 min. As a control, WGA eluates that were not treated with antibody were also introduced to the gels. […]

[2] = biological target: T1, human A1 adenosine receptor (Homo sapiens, UniProt P30542); experiment: Binding constants against cloned and expressed human adenosine receptor subtypes (A1); conditions: read-out: Binding constant (KD) A1
T1 construct: expressed in transfected cells
T1 sequence (P30542 1-326): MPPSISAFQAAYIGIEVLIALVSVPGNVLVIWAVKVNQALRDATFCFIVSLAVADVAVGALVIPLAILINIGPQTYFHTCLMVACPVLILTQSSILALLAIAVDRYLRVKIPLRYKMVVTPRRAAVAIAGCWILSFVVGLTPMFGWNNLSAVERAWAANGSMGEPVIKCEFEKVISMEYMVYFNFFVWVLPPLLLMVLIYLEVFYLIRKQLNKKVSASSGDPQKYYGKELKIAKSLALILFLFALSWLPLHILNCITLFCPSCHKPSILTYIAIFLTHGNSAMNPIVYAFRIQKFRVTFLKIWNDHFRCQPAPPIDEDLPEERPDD

Compound	PTPase bands in in-gel assay [1]	Kd [2] [µM]
sodium vanadate	Bands disappeared	–
CCCn1c(=O)[nH]c(=O)c2[nH]cnc21 [Enprofylline, 3-n-propylxanthine]	–	156
